In patent US9493468B2, “Antifungal 5,6-dihydro-4H-pyrrolo[1,2-a][1,4]benzo-diazepines and 6H-pyrrolo[1,2-a][1,4]benzodiazepines substituted with heterocyclic derivatives” (Janssen Pharmaceutica NV, priority 2011, dated 2016):

Legend:
Type in all cases: cell-based
Cryptococcus neoformans = test: Antifungal activity in vitro, resazurin growth inhibition: Cryptococcus neoformans (B66663)
Procedure, shortened: (§1)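 Broth microdilution: RPMI-1640/L-Gln/2% glucose, MOPS pH 7.0±0.1; 10^3 cfu/well; top concentration 64 μM, 2- or 4-fold steps. Dermatophytes at 27° C., one week or more. Resazurin 0.005% (w/v) added, fluorescence 550/590 nm.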

Candida parapsilosis = test: Antifungal activity in vitro, resazurin growth inhibition: Candida parapsilosis (B66126)
Procedure, shortened: as §1

Scedosporium prolificans = test: Antifungal activity in vitro, resazurin growth inhibition: Scedosporium prolificans (IHEM21157)
Description: (§2) The standard susceptibility screen is performed in 96-well plates (U-bottom, Greiner Bio-One). Serial dilutions (2-fold or 4-fold) of 20 mM compound stock solutions are made in 100% DMSO, followed by an intermediate dilution step in water. These serial dilutions (10 μl) are then spotted onto test-plates that can be stored in the dark at 4° C. for a maximum period of 2 weeks. An adequate broad dose-range is included with 64 μM as the highest in-test concentration. The culture medium RPMI-1640 is supplemented with L-glutamine, 2% glucose and buffered with 3-(N-morpholino)-propanesulfonic acid (MOPS) at pH 7.0±0.1.
(§3) The different fungal species/isolates (Table 3a) are cryopreserved and 1/1000 diluted in medium just prior to use. A standard inoculum of 200 μl containing 10^3 colony-forming unit (cfu) is then added to each well. A positive control (100% growth=fungal culture without antifungal) and a negative control (0% growth ═RPMI-MOPS medium) are included on each plate. Optimal incubation time and temperature are dependent on the fungal species and vary from 24 h for yeasts (37° C.) to one week or more for dermatophytes (27° C.). Inhibition of fungal growth is measured after adding 10 μl of 0.005% (w/v) resazurin (Sigma Aldrich) to each well, based on the principle that living cells convert the non-fluorescent blue resazurin into the pink and fluorescent resorufin, allowing fluorimetric reading (λex 550 nm and λem 590 nm) after an additional incubation period (‘resa’ time mentioned in Table 3a).

Trichophyton rubrum = test: Antifungal activity in vitro, resazurin growth inhibition: Trichophyton rubrum (B68183)
Procedure, shortened: (§4)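 Dermatophytes incubated at 27° C. for one week or more with compound, max 64 μM, in RPMI-1640/MOPS pH 7.0±0.1, 10^3 cfu/well. Viability by resazurin-to-resorufin fluorescence, 550/590 nm.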

Rhizomucor miehei = test: Antifungal activity in vitro, resazurin growth inhibition: Rhizomucor miehei (IHEM13391)
Description: as §2, §3

Aspergillus fumigatus = test: Antifungal activity in vitro, resazurin growth inhibition: Aspergillus fumigatus (B42928)
Procedure, shortened: as §1

Sporothrix schenkii = test: Antifungal activity in vitro, resazurin growth inhibition: Sporothrix schenkii (B62482)
Procedure, shortened: as §1

[1] = system: Trichophyton mentagrophytes; test: Antifungal activity in vitro, resazurin growth inhibition: Trichophyton mentagrophytes (B70554)
Procedure, shortened: as §4

Microsporum canis = test: Antifungal activity in vitro, resazurin growth inhibition: Microsporum canis (B68128)
Procedure, shortened: as §4

Scedosporium apiospermum = test: Antifungal activity in vitro, resazurin growth inhibition: Scedosporium apiospermum (IHEM3817)
Description: as §2, §3

Rhizopus oryzae = test: Antifungal activity in vitro, resazurin growth inhibition: Rhizopus oryzae (IHEM5223)
Description: as §2, §3

Q: For `Clc1ccc2c(c1)-n1cccc1C(c1cc3ccccc3s1)=NC2` [Compound 166], which “Inf. F: Cryptococcus neoformans B66663, pIC50” value (“Inf. F” below) (Cryptococcus neoformans) is on record?
A: The value was 6.00.

Q: And the “Inf. D: Candida parapsilosis B66126, pIC50” value (“Inf. D” below) (Candida parapsilosis)?
A: Its value is under 4.19.

Q: What about the “Inf. I: Scedosporium prolificans IHEM21157, pIC50” value (“Inf. I” below) (Scedosporium prolificans) of the same compound?
A: Its value is 5.65.

Q: What about the “Inf. C: Trichophyton rubrum B68183, pIC50” value (“Inf. C” below) (Trichophyton rubrum) of the same compound?
A: Its value is 5.70.

Q: What about the “Inf. K: Rhizomucor miehei IHEM13391, pIC50” value (“Inf. K” below) (Rhizomucor miehei) of the same compound?
A: The value was under 4.19.

Q: What about the “Inf. E: Aspergillus fumigatus B42928, pIC50” value (“Inf. E” below) (Aspergillus fumigatus) of the same compound?
A: Its value is 6.00.

Q: What about the “Inf. A: Sporothrix schenkii B62482, pIC50” value (Sporothrix schenkii) of the same compound?
A: Its value is 5.52.

Q: And the “Inf. G: Trichophyton mentagrophytes B70554, pIC50” value (“Inf. G” below) [1]?
A: The value was 5.52.

Q: And the “Inf. B: Microsporum canis B68128, pIC50” value (Microsporum canis)?
A: Its value is 5.70.

Q: What about the “Inf. H: Scedosporium apiospermum IHEM3817, pIC50” value (“Inf. H” below) (Scedosporium apiospermum) of the same compound?
A: The value was 4.33.

Q: What about the “Inf. J: Rhizopus oryzae IHEM5223, pIC50” value (Rhizopus oryzae) of the same compound?
A: Its value is 5.37.

Q: Which “Inf. F” value (Cryptococcus neoformans) does the source give for `Clc1ccc2c(c1)-n1cccc1C(c1ccc3sccc3c1)=NC2` [Compound 173] here?
A: Its value is 6.41.

Q: And the “Inf. D” value (Candida parapsilosis)?
A: The value was 5.71.

Q: What about the “Inf. I” value (Scedosporium prolificans) of the same compound?
A: The value was 4.54.

Q: And the “Inf. C” value (Trichophyton rubrum)?
A: The value was 6.41.

Q: And the “Inf. K” value (Rhizomucor miehei)?
A: The value was 5.08.

Q: What about the “Inf. E” value (Aspergillus fumigatus) of the same compound?
A: Its value is 6.30.

Q: And the “Inf. A: Sporothrix schenkii B62482, pIC50” value (Sporothrix schenkii)?
A: Its value is 5.70.

Q: And the “Inf. G” value [1]?
A: Its value is 6.51.

Q: What about the “Inf. B: Microsporum canis B68128, pIC50” value (Microsporum canis) of the same compound?
A: Its value is 6.54.

Q: What about the “Inf. H” value (Scedosporium apiospermum) of the same compound?
A: The value was 5.08.

Q: And the “Inf. J: Rhizopus oryzae IHEM5223, pIC50” value (Rhizopus oryzae)?
A: The value was under 4.19.

Q: Which results are given for `CC(F)(F)c1ccc(C2=NCc3c(Cl)cc(F)cc3-n3cccc32)cn1` [Compound 85]?
A: Inf. F: Cryptococcus neoformans B66663, pIC50 (Cryptococcus neoformans): 5.86; Inf. D: Candida parapsilosis B66126, pIC50 (Candida parapsilosis): 5.61; Inf. I: Scedosporium prolificans IHEM21157, pIC50 (Scedosporium prolificans): 4.81; Inf. C: Trichophyton rubrum B68183, pIC50 (Trichophyton rubrum): 6.81; Inf. K: Rhizomucor miehei IHEM13391, pIC50 (Rhizomucor miehei): <4.19; Inf. E: Aspergillus fumigatus B42928, pIC50 (Aspergillus fumigatus): 6.28; Inf. A: Sporothrix schenkii B62482, pIC50 (Sporothrix schenkii): 4.63; Inf. G: Trichophyton mentagrophytes B70554, pIC50 [1]: 6.60; Inf. B: Microsporum canis B68128, pIC50 (Microsporum canis): 6.73; Inf. H: Scedosporium apiospermum IHEM3817, pIC50 (Scedosporium apiospermum): 5.44; Inf. J: Rhizopus oryzae IHEM5223, pIC50 (Rhizopus oryzae): <4.19

Q: Which results are given for `FC(F)(F)c1ccc(C2=NCc3c(Cl)cccc3-n3cccc32)cn1` [Compound 89]?
A: Inf. F: Cryptococcus neoformans B66663, pIC50 (Cryptococcus neoformans): <4.19; Inf. D: Candida parapsilosis B66126, pIC50 (Candida parapsilosis): 6.17; Inf. I: Scedosporium prolificans IHEM21157, pIC50 (Scedosporium prolificans): 6.28; Inf. C: Trichophyton rubrum B68183, pIC50 (Trichophyton rubrum): 6.75; Inf. K: Rhizomucor miehei IHEM13391, pIC50 (Rhizomucor miehei): <4.19; Inf. E: Aspergillus fumigatus B42928, pIC50 (Aspergillus fumigatus): 5.70; Inf. A: Sporothrix schenkii B62482, pIC50 (Sporothrix schenkii): <4.19; Inf. G: Trichophyton mentagrophytes B70554, pIC50 [1]: 6.23; Inf. B: Microsporum canis B68128, pIC50 (Microsporum canis): 6.14; Inf. H: Scedosporium apiospermum IHEM3817, pIC50 (Scedosporium apiospermum): <4.19; Inf. J: Rhizopus oryzae IHEM5223, pIC50 (Rhizopus oryzae): <4.19

Q: `Cc1cccc2c1-n1cccc1C(c1cc3ccccc3s1)=NC2` [Compound 164] was tested. Which “Inf. F” value (Cryptococcus neoformans) did it give?
A: Its value is 5.85.

Q: And the “Inf. D” value (Candida parapsilosis)?
A: Its value is 4.97.

Q: And the “Inf. I” value (Scedosporium prolificans)?
A: The value was 6.44.

Q: What about the “Inf. C” value (Trichophyton rubrum) of the same compound?
A: Its value is 6.51.

Q: What about the “Inf. K” value (Rhizomucor miehei) of the same compound?
A: The value was 5.15.

Q: What about the “Inf. E” value (Aspergillus fumigatus) of the same compound?
A: The value was 5.70.

Q: And the “Inf. A: Sporothrix schenkii B62482, pIC50” value (Sporothrix schenkii)?
A: Its value is 5.40.

Q: And the “Inf. G” value [1]?
A: Its value is 6.29.

Q: And the “Inf. B: Microsporum canis B68128, pIC50” value (Microsporum canis)?
A: The value was 5.86.

Q: And the “Inf. H” value (Scedosporium apiospermum)?
A: Its value is 5.66.

Q: And the “Inf. J: Rhizopus oryzae IHEM5223, pIC50” value (Rhizopus oryzae)?
A: The value was under 4.19.

Q: How did the “Inf. F” value (Cryptococcus neoformans) turn out when `Fc1ccc2oc(C3=NCc4c(Cl)cccc4-n4cccc43)cc2c1` [Compound 123] was run?
A: Its value is 4.98.

Q: And the “Inf. D” value (Candida parapsilosis)?
A: The value was under 4.19.

Q: And the “Inf. I” value (Scedosporium prolificans)?
A: The value was 6.44.

Q: What about the “Inf. C” value (Trichophyton rubrum) of the same compound?
A: Its value is 6.96.

Q: What about the “Inf. K” value (Rhizomucor miehei) of the same compound?
A: The value was 5.14.

Q: And the “Inf. E” value (Aspergillus fumigatus)?
A: The value was 6.25.

Q: And the “Inf. A: Sporothrix schenkii B62482, pIC50” value (Sporothrix schenkii)?
A: Its value is 5.04.

Q: And the “Inf. G” value [1]?
A: The value was 6.23.

Q: What about the “Inf. B: Microsporum canis B68128, pIC50” value (Microsporum canis) of the same compound?
A: Its value is 6.75.

Q: And the “Inf. H” value (Scedosporium apiospermum)?
A: The value was 6.02.

Q: What about the “Inf. J: Rhizopus oryzae IHEM5223, pIC50” value (Rhizopus oryzae) of the same compound?
A: Its value is under 4.19.

Q: For `CC(F)(F)c1ccc(C2=NCc3c(F)cc(F)cc3-n3cccc32)cn1` [Compound 86], which “Inf. F” value (Cryptococcus neoformans) is on record?
A: The value was 4.99.

Q: And the “Inf. D” value (Candida parapsilosis)?
A: The value was 5.56.

Q: And the “Inf. I” value (Scedosporium prolificans)?
A: Its value is 5.77.

Q: And the “Inf. C” value (Trichophyton rubrum)?
A: The value was 6.30.

Q: What about the “Inf. K” value (Rhizomucor miehei) of the same compound?
A: Its value is under 4.19.

Q: What about the “Inf. E” value (Aspergillus fumigatus) of the same compound?
A: Its value is 5.68.

Q: And the “Inf. A: Sporothrix schenkii B62482, pIC50” value (Sporothrix schenkii)?
A: Its value is 4.94.

Q: What about the “Inf. G” value [1] of the same compound?
A: Its value is 5.59.

Q: And the “Inf. B: Microsporum canis B68128, pIC50” value (Microsporum canis)?
A: The value was 5.67.

Q: What about the “Inf. H” value (Scedosporium apiospermum) of the same compound?
A: Its value is 4.43.

Q: What about the “Inf. J: Rhizopus oryzae IHEM5223, pIC50” value (Rhizopus oryzae) of the same compound?
A: Its value is under 4.19.
